Source: patent publication US10457691B2, “Macrocyclic kinase inhibitors and uses thereof” (Dana-Farber Cancer Institute, Inc., priority 2014, dated 2019)

Assays:
Assay type in all cases: biochemical
Conditions in all cases: read-out: Activity of the protein kinase when treated with compound I-1 (% control)
[1] = target: IRAK1 (Homo sapiens, UniProt P51617); experiment: Protein kinase assay ([γ-32P] ATP), IRAK1
Experimental: (§1) In another set of experiments, the activities of the compounds described herein against various protein kinases were determined according to the methods reported in Hastie et al., Nature Protocols, 2006, 1, 968-971.
(§2) Enzyme dilution buffer. This buffer consisted of 50 mM Tris-HCl, pH 7.5, 0.1 mM EGTA, 1 mg ml^−1 bovine serum albumin and 0.1% (vol/vol) 2-mercaptoethanol.
(§3) 10× concentrated assay buffer. An assay buffer of 500 mM Tris-HCl, pH 7.5, 1 mM EGTA, and 100 mM magnesium acetate was used for assay of a wide variety of protein kinases. In some experiments, other cofactors were included (e.g., calcium ions and calmodulin were included for assay of calcium-calmodulindependent protein kinases).
(§4) 1 mM [γ-^32P] ATP. The specific activity of the [γ-^32P] ATP solution was 1×10^5 to 1×10^6 c.p.m. per nmol depending on what was needed to produce an optimal signal/noise ratio. […] To measure the concentration of ATP, a sample of such a stock solution was diluted to 20 μM, and the absorbance of the diluted sample was measured at 259 nm. The absorbance of a 20-μM stock solution of ATP at 259 nm was about 0.31. […] ATP to produce a radioactivity of 1×10^5 to 1×10^6 c.p.m. per nmol. […]
(§5) 13) Measure radioactivity in the samples by Cerenkov counting (e.g., without liquid scintillation fluid) in a liquid scintillation counter using a “^32P program”. […]

[2] = target: EPH-B4 (Homo sapiens, UniProt P54760); experiment: Protein kinase assay ([γ-32P] ATP), EPH-B4
Experimental: as §1, §2, §3, §4, §5

[3] = target: SmMLCK (Homo sapiens, UniProt Q15746); experiment: Protein kinase assay ([γ-32P] ATP), SmMLCK
Experimental: as §1, §2, §3, §4, §5

[4] = target: EF2K (Homo sapiens, UniProt O00418); experiment: Protein kinase assay ([γ-32P] ATP), EF2K
Experimental: as §1, §2, §3, §4, §5

[5] = target: CAMK1 (Homo sapiens, UniProt Q14012); experiment: Protein kinase assay ([γ-32P] ATP), CAMK1
Experimental: as §1, §2, §3, §4, §5

[6] = target: OSR1 (Homo sapiens, UniProt O95747); experiment: Protein kinase assay ([γ-32P] ATP), OSR1
Sequence of OSR1 (O95747 whole entry): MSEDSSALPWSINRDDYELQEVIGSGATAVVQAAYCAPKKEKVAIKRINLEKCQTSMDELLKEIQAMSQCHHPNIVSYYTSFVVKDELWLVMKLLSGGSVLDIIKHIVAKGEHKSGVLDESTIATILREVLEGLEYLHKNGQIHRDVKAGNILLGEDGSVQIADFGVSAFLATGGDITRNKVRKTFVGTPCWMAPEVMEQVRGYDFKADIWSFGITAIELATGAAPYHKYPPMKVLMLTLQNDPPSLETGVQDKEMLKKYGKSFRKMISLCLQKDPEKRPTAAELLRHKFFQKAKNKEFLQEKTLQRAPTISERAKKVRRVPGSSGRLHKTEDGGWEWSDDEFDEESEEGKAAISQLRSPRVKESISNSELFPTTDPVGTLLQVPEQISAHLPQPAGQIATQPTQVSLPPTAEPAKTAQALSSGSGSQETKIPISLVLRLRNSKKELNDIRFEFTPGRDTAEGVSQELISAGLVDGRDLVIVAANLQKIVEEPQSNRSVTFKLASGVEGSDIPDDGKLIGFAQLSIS
Experimental: as §1, §2, §3, §4, §5

[7] = target: MELK (Homo sapiens, UniProt Q14680); experiment: Protein kinase assay ([γ-32P] ATP), MELK
Sequence of MELK (Q14680 whole entry): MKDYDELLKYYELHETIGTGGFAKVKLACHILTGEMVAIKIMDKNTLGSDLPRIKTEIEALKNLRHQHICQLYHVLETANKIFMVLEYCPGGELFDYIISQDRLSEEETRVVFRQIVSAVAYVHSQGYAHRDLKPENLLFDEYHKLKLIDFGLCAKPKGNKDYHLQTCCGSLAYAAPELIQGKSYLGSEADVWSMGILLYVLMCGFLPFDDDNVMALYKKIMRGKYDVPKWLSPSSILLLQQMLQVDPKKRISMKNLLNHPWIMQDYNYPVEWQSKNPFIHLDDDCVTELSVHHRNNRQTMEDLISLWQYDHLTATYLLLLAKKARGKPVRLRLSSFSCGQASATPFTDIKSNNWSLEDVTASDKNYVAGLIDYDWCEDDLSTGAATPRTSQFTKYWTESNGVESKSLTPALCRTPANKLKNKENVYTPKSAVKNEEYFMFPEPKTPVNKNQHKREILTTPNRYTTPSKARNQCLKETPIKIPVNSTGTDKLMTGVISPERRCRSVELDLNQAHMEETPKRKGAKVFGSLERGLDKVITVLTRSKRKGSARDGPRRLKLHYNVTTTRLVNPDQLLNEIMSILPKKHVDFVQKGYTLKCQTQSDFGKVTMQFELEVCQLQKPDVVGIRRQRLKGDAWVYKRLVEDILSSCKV
Experimental: as §1, §2, §3, §4, §5

[8] = target: PAK4 (Homo sapiens, UniProt O96013); experiment: Protein kinase assay ([γ-32P] ATP), PAK4
Sequence of PAK4 (O96013 whole entry): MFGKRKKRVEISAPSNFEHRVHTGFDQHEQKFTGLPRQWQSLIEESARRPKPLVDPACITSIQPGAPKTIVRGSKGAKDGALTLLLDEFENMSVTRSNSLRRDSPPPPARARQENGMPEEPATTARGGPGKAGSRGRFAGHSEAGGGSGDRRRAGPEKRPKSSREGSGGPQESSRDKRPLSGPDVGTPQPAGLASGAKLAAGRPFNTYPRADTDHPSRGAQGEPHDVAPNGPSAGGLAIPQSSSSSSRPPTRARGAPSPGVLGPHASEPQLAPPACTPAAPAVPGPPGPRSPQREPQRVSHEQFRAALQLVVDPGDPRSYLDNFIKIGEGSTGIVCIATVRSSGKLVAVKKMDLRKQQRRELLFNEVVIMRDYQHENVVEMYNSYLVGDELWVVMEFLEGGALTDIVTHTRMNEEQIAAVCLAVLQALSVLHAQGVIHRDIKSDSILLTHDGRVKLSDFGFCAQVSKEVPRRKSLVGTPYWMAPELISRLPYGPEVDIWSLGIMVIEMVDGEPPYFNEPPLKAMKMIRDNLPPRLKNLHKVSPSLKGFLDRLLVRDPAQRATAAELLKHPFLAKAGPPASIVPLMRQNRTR
Experimental: as §1, §2, §3, §4, §5

[9] = target: BRK (Homo sapiens, UniProt Q13882); experiment: Protein kinase assay ([γ-32P] ATP), BRK
Experimental: as §1, §2, §3, §4, §5

[10] = target: DYRK1A (Homo sapiens, UniProt Q13627); experiment: Protein kinase assay ([γ-32P] ATP), DYRK1A
Experimental: as §1, §2, §3, §4, §5

[11] = target: BRSK2 (Homo sapiens, UniProt Q8IWQ3); experiment: Protein kinase assay ([γ-32P] ATP), BRSK2
Sequence of BRSK2 (Q8IWQ3 whole entry): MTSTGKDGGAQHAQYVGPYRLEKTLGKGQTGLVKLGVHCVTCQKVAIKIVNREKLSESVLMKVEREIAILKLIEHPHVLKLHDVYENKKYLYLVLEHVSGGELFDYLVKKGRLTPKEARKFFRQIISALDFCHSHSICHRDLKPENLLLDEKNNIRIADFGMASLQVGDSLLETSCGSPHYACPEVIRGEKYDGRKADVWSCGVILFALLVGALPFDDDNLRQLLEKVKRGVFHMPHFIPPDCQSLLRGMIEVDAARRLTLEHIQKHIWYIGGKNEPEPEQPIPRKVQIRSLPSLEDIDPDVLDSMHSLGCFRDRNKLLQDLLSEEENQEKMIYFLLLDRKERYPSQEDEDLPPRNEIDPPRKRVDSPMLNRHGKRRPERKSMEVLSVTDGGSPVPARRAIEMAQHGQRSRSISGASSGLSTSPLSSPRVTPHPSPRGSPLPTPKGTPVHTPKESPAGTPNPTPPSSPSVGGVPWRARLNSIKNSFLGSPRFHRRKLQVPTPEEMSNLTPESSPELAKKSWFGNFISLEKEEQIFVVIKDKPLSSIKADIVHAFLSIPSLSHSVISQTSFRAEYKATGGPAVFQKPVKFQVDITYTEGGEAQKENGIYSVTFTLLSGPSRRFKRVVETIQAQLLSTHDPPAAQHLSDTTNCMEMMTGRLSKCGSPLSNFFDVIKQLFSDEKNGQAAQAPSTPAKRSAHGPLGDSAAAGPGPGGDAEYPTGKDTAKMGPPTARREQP
Experimental: as §1, §2, §3, §4, §5

[12] = target: EIF2AK3 (Homo sapiens, UniProt Q9NZJ5); experiment: Protein kinase assay ([γ-32P] ATP), EIF2AK3
Experimental: as §1, §2, §3, §4, §5

[13] = target: PKBa (Homo sapiens, UniProt P31749); experiment: Protein kinase assay ([γ-32P] ATP), PKBa
Sequence of PKBa (P31749 whole entry): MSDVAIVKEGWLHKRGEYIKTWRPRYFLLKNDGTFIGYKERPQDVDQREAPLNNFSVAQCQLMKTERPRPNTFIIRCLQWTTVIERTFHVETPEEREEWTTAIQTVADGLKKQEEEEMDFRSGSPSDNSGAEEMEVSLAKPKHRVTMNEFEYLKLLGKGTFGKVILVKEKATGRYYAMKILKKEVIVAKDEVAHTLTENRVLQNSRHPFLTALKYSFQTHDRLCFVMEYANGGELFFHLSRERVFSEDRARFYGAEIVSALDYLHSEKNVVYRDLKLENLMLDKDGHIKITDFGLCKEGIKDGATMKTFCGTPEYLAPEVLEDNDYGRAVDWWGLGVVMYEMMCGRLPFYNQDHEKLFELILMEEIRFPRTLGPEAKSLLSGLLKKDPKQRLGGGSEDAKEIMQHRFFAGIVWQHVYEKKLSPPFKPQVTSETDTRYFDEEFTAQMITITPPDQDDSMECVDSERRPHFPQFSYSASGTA
Experimental: as §1, §2, §3, §4, §5

[14] = target: MINK1 (Homo sapiens, UniProt Q8N4C8); experiment: Protein kinase assay ([γ-32P] ATP), MINK1
Experimental: as §1, §2, §3, §4, §5

[15] = target: ERK2 (Homo sapiens, UniProt P28482); experiment: Protein kinase assay ([γ-32P] ATP), ERK2
Sequence of ERK2 (P28482 whole entry): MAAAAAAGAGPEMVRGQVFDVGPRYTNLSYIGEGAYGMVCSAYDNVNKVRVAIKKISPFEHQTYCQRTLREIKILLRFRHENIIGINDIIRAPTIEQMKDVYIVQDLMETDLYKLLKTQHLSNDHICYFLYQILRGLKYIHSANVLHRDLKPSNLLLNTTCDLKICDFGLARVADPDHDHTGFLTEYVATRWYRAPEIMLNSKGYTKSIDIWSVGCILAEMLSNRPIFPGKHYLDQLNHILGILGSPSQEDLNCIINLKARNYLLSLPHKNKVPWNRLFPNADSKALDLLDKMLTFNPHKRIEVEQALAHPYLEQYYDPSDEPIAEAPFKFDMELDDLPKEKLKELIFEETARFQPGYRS
Experimental: as §1, §2, §3, §4, §5

[16] = target: DDR2 (Homo sapiens, UniProt Q16832); experiment: Protein kinase assay ([γ-32P] ATP), DDR2
Sequence of DDR2 (Q16832 22-855): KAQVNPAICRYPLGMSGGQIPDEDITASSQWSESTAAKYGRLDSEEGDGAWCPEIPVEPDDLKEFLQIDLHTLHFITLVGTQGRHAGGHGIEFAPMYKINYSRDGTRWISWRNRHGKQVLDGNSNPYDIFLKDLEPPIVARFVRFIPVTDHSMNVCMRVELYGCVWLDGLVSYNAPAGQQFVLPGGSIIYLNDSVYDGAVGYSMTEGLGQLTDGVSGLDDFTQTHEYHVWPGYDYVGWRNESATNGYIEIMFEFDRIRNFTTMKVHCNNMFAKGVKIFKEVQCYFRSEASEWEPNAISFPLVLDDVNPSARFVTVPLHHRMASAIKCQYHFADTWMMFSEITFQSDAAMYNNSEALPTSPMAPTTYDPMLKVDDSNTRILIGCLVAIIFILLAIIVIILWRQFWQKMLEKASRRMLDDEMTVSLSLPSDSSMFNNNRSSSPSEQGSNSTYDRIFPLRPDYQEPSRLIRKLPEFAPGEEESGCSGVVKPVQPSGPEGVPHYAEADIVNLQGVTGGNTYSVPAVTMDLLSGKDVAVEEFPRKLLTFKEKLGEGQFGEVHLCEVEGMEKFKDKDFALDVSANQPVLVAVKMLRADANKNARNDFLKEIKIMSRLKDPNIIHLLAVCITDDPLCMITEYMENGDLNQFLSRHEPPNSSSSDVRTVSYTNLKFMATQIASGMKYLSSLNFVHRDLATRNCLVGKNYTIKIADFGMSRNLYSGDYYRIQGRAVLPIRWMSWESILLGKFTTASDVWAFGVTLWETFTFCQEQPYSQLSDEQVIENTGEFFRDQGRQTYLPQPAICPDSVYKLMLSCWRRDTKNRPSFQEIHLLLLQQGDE
Experimental: as §1, §2, §3, §4, §5

[17] = target: IR (Homo sapiens, UniProt P06213); experiment: Protein kinase assay ([γ-32P] ATP), IR
Experimental: as §1, §2, §3, §4, §5

[18] = 0.1 μM of compound I-1, DMSO control = 100%
[19] = 1 μM of compound I-1, DMSO control = 100%

Sequence of IRAK1 (P51617 whole entry): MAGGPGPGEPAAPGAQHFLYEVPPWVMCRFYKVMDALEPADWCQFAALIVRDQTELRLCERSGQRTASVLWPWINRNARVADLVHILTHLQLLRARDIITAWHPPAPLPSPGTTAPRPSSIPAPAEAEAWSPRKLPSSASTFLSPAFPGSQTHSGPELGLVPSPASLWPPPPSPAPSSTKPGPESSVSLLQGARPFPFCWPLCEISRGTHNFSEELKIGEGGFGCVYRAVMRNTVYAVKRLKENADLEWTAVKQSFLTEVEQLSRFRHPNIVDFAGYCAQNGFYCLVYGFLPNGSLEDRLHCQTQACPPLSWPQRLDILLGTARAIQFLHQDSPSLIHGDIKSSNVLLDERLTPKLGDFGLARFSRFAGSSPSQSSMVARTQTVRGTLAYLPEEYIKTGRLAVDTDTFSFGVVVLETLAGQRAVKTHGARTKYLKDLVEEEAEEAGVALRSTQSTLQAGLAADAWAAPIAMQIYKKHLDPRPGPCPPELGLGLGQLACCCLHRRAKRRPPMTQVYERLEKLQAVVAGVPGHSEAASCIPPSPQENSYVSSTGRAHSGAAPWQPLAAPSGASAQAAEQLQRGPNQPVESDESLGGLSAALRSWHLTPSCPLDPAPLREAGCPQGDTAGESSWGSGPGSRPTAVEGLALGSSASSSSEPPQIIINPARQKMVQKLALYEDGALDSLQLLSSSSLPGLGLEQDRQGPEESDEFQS

Work on `Cc1cccc(C)c1NC(=O)N1C/C=C\COc2cccc(c2)Nc2cc1ncn2` [Compound I-1] yielded a remaining activity at 0.1 µM [1, 18] of 105%, a remaining activity at 1 µM [1, 19] of 83% and a remaining activity at 0.1 µM [2, 18] of 55%. The remaining activity at 1 µM [2, 19] was 4%, the remaining activity at 0.1 µM [3, 18] was 91% and the remaining activity at 1 µM [3, 19] was 85%. For the same compound, the remaining activity at 0.1 µM [4, 18] was 103%, the remaining activity at 1 µM [4, 19] was 83% and the remaining activity at 0.1 µM [5, 18] was 115%. It also gave a remaining activity at 1 µM [5, 19] of 56%, a remaining activity at 0.1 µM [6, 18] of 97% and a remaining activity at 1 µM [6, 19] of 79%. It also gave a remaining activity at 0.1 µM [7, 18] of 67%, a remaining activity at 1 µM [7, 19] of 49% and a remaining activity at 0.1 µM [8, 18] of 100%. The remaining activity at 1 µM [8, 19] was 78%, the remaining activity at 0.1 µM [9, 18] was 36% and the remaining activity at 1 µM [9, 19] was 12%. It also gave a remaining activity at 0.1 µM [10, 18] of 104%, a remaining activity at 1 µM [10, 19] of 86% and a remaining activity at 0.1 µM [11, 18] of 110%. The remaining activity at 1 µM [11, 19] was 78%, the remaining activity at 0.1 µM [12, 18] was 97% and the remaining activity at 1 µM [12, 19] was 80%. The remaining activity at 0.1 µM [13, 18] was 99%, the remaining activity at 1 µM [13, 19] was 86% and the remaining activity at 0.1 µM [14, 18] was 46%. The remaining activity at 1 µM [14, 19] was 9%, the remaining activity at 0.1 µM [15, 18] was 104% and the remaining activity at 1 µM [15, 19] was 80%. The remaining activity at 0.1 µM [16, 18] was 28%, the remaining activity at 1 µM [16, 19] was 3% and the remaining activity at 0.1 µM [17, 18] was 102%. It also gave a remaining activity at 1 µM [17, 19] of 93%.
